Source: US5750531A, “Pyrimidine derivatives and processes for the preparation thereof” (Yuhan Corporation, priority 1994, dated 1998)
Where a name gives a salt, the structure may show the parent alone.

Legend:
[1] = tested on: H^+ /K^+ -ATPase; assay: Reversibility Test (Dilution and Washout method, gastric vesicles); format: biochemical; conditions: compound 50 μM
Procedure: Test 3. Reversibility Test
Gastric vesicles were prepared by the same method as in Experiment 4-1 of WO 94/14795. The inhibition mechanism of proton pump activity by the present invention compound was tested in accordance with the so-called Dilution and Washout method [see e.g., D. J. Keeling, et al., Biochemical Pharmacology, 42(1), 123-130(1991)].
Namely, test tubes were divided into two group, Groups 1 and 2. Each group was divided into four subgroups. 90 μl of 5 mM Pipes/Tris buffer(pH 7.4) and 10 μl of DMSO were added to subgroups 1 and 2 of each group. 90 μl of 5 mM Pipes/Tris buffer(pH 7.4) and 10 μl of the compound prepared in Example 43(50 μM) were added to subgroups 3 and 4 of each group. To all two groups, was added 100 μl of lyophilized vesicles at the concentration of 100 μg protein/ml and then preincubated at 37° C. for 15 minutes.
2 mM MgCl2 was added to subgroups 1 and 3 of Group 1. 2 mM MgCl2 and 10 mM KCl were added to subgroups 2 and 4 of Group 1. 3 mM ATP was added to all subgroups of Group 1 until the final volume became 500 μl. After incubation for 30 minutes, the inhibition of H^+ /K^+ -ATPase activity by the test compound was measured.
After preincubation as described above, each subgroup of Group 2 was diluted with 50-fold volume of 5 mM Pipes/Tris buffer(pH7.4) and then centrifuged for 60 minutes by means of Beckman ultracentrifuge(Model L8-80). The supernatant was discarded and washed out by 10 ml of 5 mM Pipes/Tris buffer(ph 7.4). The resulting pellet was suspended with 5 mM Pipes/Tris buffer (pH7.4) until the volume became the same as the preincubation volume.
Thereafter, in accordance with the treatment to Group 1, each subgroup of Group 2 was treated with 2 mM MgCl2, 10 mM KCl and 3 mM ATP. And the final volume of each subgroup of Group 2 was made to be 500 μl.
And it was further measured in accordance with the same procedures as above, except the compound prepared in Example 75 was used as a test compound.

[2] = tested on: gastric secretion; assay: Inhibition of gastric secretion (pylorus ligation, Shay method); format: in vivo, Male Sprague-Dawley rats; conditions: 20 mg/kg intraduodenally, 5 hours; for Rel. Conc.: acid concentration relative to omeprazole; for Relative Acid Output: acid output relative to omeprazole; for Rel. Vol.: gastric juice volume relative to omeprazole
Method in brief: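 Rats under ether anaesthesia had the pylorus ligated, and the stomach was removed 5 h later. Gastric juice was centrifuged at 1,000 g, and its volume and acidity were measured. Relative volume, relative acid concentration and relative acid output […] were then calculated.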

[3] = molecular target: proton pump(H^+ /K^+ ATPase); assay: Inhibition of proton pump(H^+ /K^+ ATPase) activity; format: biochemical; conditions: pH 6.0, 37° C., 30 minutes preincubation and 30 minutes reaction; read-out: IC50 Test compound
Method in brief: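 Enzyme was preincubated with compound at five concentrations for 30 min at 37° C in Tris-HCl pH 6.0 with Mg2+, K+ and NH4Cl. Reaction ran 30 min at 37° C with ATP and was stopped with trichloroacetic acid. K+-stimulated inorganic phosphate release gave IC50 by Litchfield-Wilcoxon.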

[4] = tested on: proton pump; conditions: in words, background; cited from earlier work

For `Cc1nc(N(C)c2ccccc2)nc(N2CCc3ccccc3C2)c1C.Cl` [Example 43, 5,6-dimethyl-2-(N-methylphenylamino)-4-(1,2,3,4-tetrahydroisoquinolin-2-yl)pyrimidine hydrochloride], the “inhibition of H^+ /K^+ ATPase activity, after Dilution & Washout” value [1] was 6%, the “inhibition of H^+ /K^+ ATPase activity, before Dilution & Washout” value [1] was 62% and the Rel. Conc. [2] was 0.59. For the same compound, the “Relative Acid Output” value [2] was 0.82, the Rel. Vol. [2] was 0.7 and the IC50 [3] was 0.5 µM.

With `Cc1nc(N2CCc3ccccc3C2)nc(Nc2ccc(F)cc2)c1C.Cl` [Example 75, 5,6-dimethyl-4-(4-fluorophenylamino)-2-(1,2,3,4-tetrahydroisoquinolin-2-yl)pyrimidine hydrochloride] the “inhibition of H^+ /K^+ ATPase activity, after Dilution & Washout” value [1] was 15%, the “inhibition of H^+ /K^+ ATPase activity, before Dilution & Washout” value [1] was 66.6% and the Rel. Conc. [2] was 1.62. The “Relative Acid Output” value [2] was 1.20, the Rel. Vol. [2] was 1.3 and the IC50 [3] was 1.2 µM.

With `Cc1nc(N(C)c2ccccc2)nc(N2CCc3ccccc3C2C)c1C.Cl` (centres unmarked) [Example 18, 5,6-dimethyl-2-(N-methylphenylamino)-4-(1-methyl-1,2,3,4-tetrahydroisoquinolin-2-yl)pyrimidine hydrochloride] the Rel. Conc. [2] was 1.82, the “Relative Acid Output” value [2] was 1.39 and the Rel. Vol. [2] was 1.72. The IC50 [3] was 4.2 µM.

In the case of `Cc1ccc(Nc2nc(C)c(C)c(N3CCc4ccccc4C3C)n2)cc1.Cl` (centres unmarked) [Example 25, 5,6-dimethyl-2-(4-methylphenylamino)-4-(1-methyl-1,2,3,4-tetrahydroisoquinolin-2-yl)pyrimidine hydrochloride], the Rel. Conc. [2] is reported as 0.8, the “Relative Acid Output” value [2] is reported as 0.92 and the Rel. Vol. [2] is reported as 1.06. It also gave an IC50 [3] of 1.4 µM.

In the case of `COc1ccc2[nH]c([S+]([O-])Cc3ncc(C)c(OC)c3C)nc2c1` (centres unmarked) [Omeprazole, omeprazole, reference compound], the “reversibility of proton pump inhibition” value [4] is given as “irreversible”.

With `Cc1cc(F)ccc1Nc1nc(C)c(C)c(N2CCc3ccccc3[C@@H]2C)n1.Cl` [Example 14, (S)-5,6-dimethyl-2-(2-methyl-4-fluorophenylamino)-4-(1-methyl-1,2,3,4-tetrahydroisoquinolin-2-yl)pyrimidine hydrochloride] the Rel. Conc. [2] was 0.3, the “Relative Acid Output” value [2] was 0.72 and the Rel. Vol. [2] was 0.53. The IC50 [3] was 0.7 µM.

With `CCc1cc(N2CCc3ccccc3C2C)nc(Nc2ccc(F)cc2C)n1.Cl` (centres unmarked) [Example 5, 6-ethyl-2-(2-methyl-4-fluorophenylamino)-4-(1-methyl-1,2,3,4-tetrahydroisoquinolin-2-yl)pyrimidine hydrochloride] the Rel. Conc. [2] was 0.27, the “Relative Acid Output” value [2] was 0.61 and the Rel. Vol. [2] was 0.59. For the same compound, the IC50 [3] was 1.3 µM.

With `CCc1nc(Nc2ccc(F)cc2C)nc(N2CCc3ccccc3C2C)c1C.Cl` (centres unmarked) [Example 26, 5-methyl-6-ethyl-2-(2-methyl-4-fluorophenylamino)-4-(1-methyl-1,2,3,4-tetrahydroisoquinolin-2-yl)pyrimidine hydrochloride] the Rel. Conc. [2] was 0.53, the “Relative Acid Output” value [2] was 0.73 and the Rel. Vol. [2] was 0.6. It also gave an IC50 [3] of 0.8 µM.

For `Cc1nc(N2CCc3ccccc3[C@H]2C)nc(Nc2ccc(F)cc2)c1C.Cl` [Example 69, (R)-5,6-dimethyl-4-(4-fluorophenylamino)-2-(1-methyl-1,2,3,4-tetrahydroisoquinolin-2-yl)pyrimidine hydrochloride], the Rel. Conc. [2] was 0.39, the “Relative Acid Output” value [2] was 0.76 and the Rel. Vol. [2] was 1.61. For the same compound, the IC50 [3] was 2.9 µM.

For `Cc1cc(N2CCc3ccsc3C2C)nc(Nc2ccc(F)cc2)n1.Cl` (centres unmarked) [Example 53, 6-methyl-4-(7-methyl-4,5,6,7-tetrahydrothieno[2,3-c]pyridin-6-yl)-2-(4-fluorophenylamino)pyrimidine hydrochloride], the Rel. Conc. [2] was 1.14, the “Relative Acid Output” value [2] was 0.55 and the Rel. Vol. [2] was 0.47. It also gave an IC50 [3] of 2.1 µM.

In the case of `Cc1cc(F)ccc1Nc1nc(N2CCc3ccsc3C2C)nc(C)c1C.Cl` (centres unmarked) [Example 77, 5,6-dimethyl-4-(2-methyl-4-fluorophenylamino)-2-(7-methyl-4,5,6,7-tetrahydrothieno[2,3-c]pyridin-6-yl)pyrimidine hydrochloride], the Rel. Conc. [2] is reported as 1.63, the “Relative Acid Output” value [2] is reported as 1.30 and the Rel. Vol. [2] is reported as 1.48. It also gave an IC50 [3] of 3.6 µM.

For `Cc1cc(N2CCc3ccccc3C2)nc(Nc2ccc(F)cc2C)n1.Cl` [Example 34, 6-methyl-2-(2-methyl-4-fluorophenylamino)-4-(1,2,3,4-tetrahydroisoquinolin-2-yl)pyrimidine hydrochloride], the Rel. Conc. [2] was 1, the “Relative Acid Output” value [2] was 0.99 and the Rel. Vol. [2] was 0.99. It also gave an IC50 [3] of 1 µM.

For `Cc1cc(F)ccc1Nc1nc(N2CCc3ccccc3C2)nc2c1CCCC2.Cl` [Example 83, 4-(2-methyl-4-fluorophenylamino)-2-(1,2,3,4-tetrahydroisoquinolin-2-yl)-5,6,7,8-tetrahydroquinazoline hydrochloride], the Rel. Conc. [2] was 1.29, the “Relative Acid Output” value [2] was 1.13 and the Rel. Vol. [2] was 1.19. For the same compound, the IC50 [3] was 1.4 µM.

With `Cc1nc(N2CCc3ccccc3[C@@H]2C)nc(Nc2ccc(F)cc2)c1C.Cl` [Example 70, (S)-5,6-dimethyl-4-(4-fluorophenylamino)-2-(1-methyl-1,2,3,4-tetrahydroisoquinolin-2-yl)pyrimidine hydrochloride] the Rel. Conc. [2] was 0.22, the “Relative Acid Output” value [2] was 0.61 and the Rel. Vol. [2] was 1.3. The IC50 [3] was 3.5 µM.

In the case of `Cc1nc(N2CCc3ccccc3C2C)nc(Nc2ccc(F)cc2)c1C.Cl` (centres unmarked) [Example 68, 5,6-dimethyl-4-(4-fluorophenylamino)-2-(1-methyl-1,2,3,4-tetrahydroisoquinolin-2-yl)pyrimidine hydrochloride], the Rel. Conc. [2] is reported as 0.23, the “Relative Acid Output” value [2] is reported as 0.67 and the Rel. Vol. [2] is reported as 1.52. For the same compound, the IC50 [3] was 3.1 µM.

With `CCc1cc(N2CCc3ccccc3C2C)nc(Nc2ccc(F)cc2)n1.Cl` (centres unmarked) [Example 6, 6-ethyl-2-(4-fluorophenylamino)-4-(1-methyl-1,2,3,4-tetrahydroisoquinolin-2-yl)pyrimidine hydrochloride] the Rel. Conc. [2] was 0.28, the “Relative Acid Output” value [2] was 0.64 and the Rel. Vol. [2] was 0.64. It also gave an IC50 [3] of 4.3 µM.

For `Cc1nc(N2CCc3ccsc3C2C)nc(Nc2ccc(F)cc2)c1C.Cl` (centres unmarked) [Example 78, 5,6-dimethyl-2-(7-methyl-4,5,6,7-tetrahydrothieno[2,3-c]pyridin-6-yl)-4-(4-fluorophenylamino)pyrimidine hydrochloride], the Rel. Conc. [2] was 1.75, the “Relative Acid Output” value [2] was 1.09 and the Rel. Vol. [2] was 1.06. It also gave an IC50 [3] of 8.5 µM.

In the case of `Cc1cc(F)ccc1Nc1nccc(N2CCc3ccccc3C2C)n1.Cl` (centres unmarked) [Example 1, 2-(2-methyl-4-fluorophenylamino)-4-(1-methyl-1,2,3,4-tetrahydroisoquinolin-2-yl)pyrimidine hydrochloride], the “Relative Acid Output” value [2] is reported as 0.11, the Rel. Vol. [2] is reported as 0.12 and the IC50 [3] is reported as 5.4 µM.

In the case of `Cc1nc(Nc2ccccc2)nc(N2CCc3ccccc3[C@@H]2C)c1C` [Example 23, hydrochloride], the Rel. Conc. [2] is reported as 0.78, the “Relative Acid Output” value [2] is reported as 0.88 and the Rel. Vol. [2] is reported as 0.92. For the same compound, the IC50 [3] was 2 µM.

For `Cc1cc(N2CCc3ccccc3C2C)nc(Nc2ccc(F)cc2C)n1.Cl` (centres unmarked) [Example 2, 6-methyl-2-(2-methyl-4-fluorophenylamino)-4-(1-methyl-1,2,3,4-tetrahydroisoquinolin-2-yl)pyrimidine hydrochloride], the Rel. Conc. [2] was 0.8, the “Relative Acid Output” value [2] was 0.89 and the Rel. Vol. [2] was 0.92. The IC50 [3] was 0.9 µM.
